Measurements from patent US7825260B2, “Aminopropanol derivatives as sphingosine-1-phosphate receptor modulators” (Novartis AG, priority 2003, dated 2010).

Legend:
[1] = system: peripheral blood lymphocytes; experiment: In vivo: Blood Lymphocyte Depletion; conditions: rats, p.o.
Procedure: B. In vivo: Blood Lymphocyte Depletion
A compound of formula I or the vehicle is administered orally by gavage to rats. Tail blood for hematological monitoring is obtained on day −1 to give the baseline individual values, and at 2, 6, 24, 48 and 72 hours after application. In this assay, the compounds of formula I deplete peripheral blood lymphocytes when administered at a dose of 0.03 to 3 mg/kg. For example, following results are obtained: depletion of peripheral blood lymphocytes by more than 50%.

[2] = molecular target: T1, human S1P receptor EDG-8 (S1P5) (Homo sapiens, UniProt Q9H228); experiment: S1P receptor profiling, GTP[γ-35S] binding SPA, S1P5; format: biochemical; conditions: for S1P5 mode of action: Agon = agonist; for EC50: GTP[γ-35S] binding to membranes of transfected CHO or RH7777 cells
T1 construct: expressed in transfected cells
T1 sequence (Q9H228 whole entry): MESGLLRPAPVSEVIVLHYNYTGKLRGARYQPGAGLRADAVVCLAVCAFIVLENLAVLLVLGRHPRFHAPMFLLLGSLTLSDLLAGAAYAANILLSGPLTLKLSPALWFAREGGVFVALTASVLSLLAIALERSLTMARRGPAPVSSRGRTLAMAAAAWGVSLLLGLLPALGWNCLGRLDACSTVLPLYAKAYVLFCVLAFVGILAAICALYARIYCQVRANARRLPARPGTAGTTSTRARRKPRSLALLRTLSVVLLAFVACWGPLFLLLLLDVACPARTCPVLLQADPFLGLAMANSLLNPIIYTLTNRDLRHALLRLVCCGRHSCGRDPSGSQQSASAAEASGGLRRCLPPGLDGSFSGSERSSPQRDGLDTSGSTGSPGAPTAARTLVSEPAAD
Procedure: (§1) Sphingosine-1-phosphate (S1P) Receptor Profiling
(§2) Agonist activities of compounds are tested on the human S1P receptors EDG-1 (S1P1), EDG-3 (S1P3), EDG-5 (S1P2), EDG-6 (S1P4) and EDG-8 (S1P5). […] The assay technology used is SPA (scintillation proximity based assay). Briefly, DMSO dissolved compounds are serially diluted and added to SPA-bead (Amersham-Pharmacia) immobilised S1P receptor expressing membrane protein (10-20 μg/well) in the presence of 50 mM Hepes, 100 mM NaCl, 10 mM MgCl2, 10 μM GDP, 0.1% fat free BSA and 0.2 nM GTP [γ-^35S] (1200 Ci/mmol). After incubation in 96 well microtiterplates at RT for 120 min, unbound GTP [γ-^35S] is separated by a centrifugation step. Luminescence of SPA beads triggered by membrane bound GTP [γ-^35S] is quantified with a TOPcount plate reader (Packard). EC50s are calculated using standard curve fitting software. In this assay, the compounds of formula I have a binding affinity to S1P1 receptor <50 nM.

[3] = molecular target: T2, human S1P receptor EDG-3 (S1P3) (Homo sapiens, UniProt Q99500); experiment: S1P receptor profiling, GTP[γ-35S] binding SPA, S1P3; format: biochemical; conditions: for S1P3 mode of action: Agon = agonist; for EC50: GTP[γ-35S] binding to membranes of transfected CHO or RH7777 cells
T2 construct: expressed in transfected cells
T2 sequence (Q99500 whole entry): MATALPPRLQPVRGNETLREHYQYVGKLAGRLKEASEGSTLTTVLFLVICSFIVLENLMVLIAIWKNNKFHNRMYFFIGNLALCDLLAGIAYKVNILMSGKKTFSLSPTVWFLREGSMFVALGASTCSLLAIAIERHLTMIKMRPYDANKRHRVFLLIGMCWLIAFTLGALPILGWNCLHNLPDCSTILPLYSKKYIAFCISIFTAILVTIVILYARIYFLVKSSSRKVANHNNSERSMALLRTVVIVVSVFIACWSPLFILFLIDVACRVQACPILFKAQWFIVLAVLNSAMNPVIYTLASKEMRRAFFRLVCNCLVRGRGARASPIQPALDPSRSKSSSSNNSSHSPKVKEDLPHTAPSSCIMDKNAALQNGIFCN
Procedure: as §1, §2

[4] = molecular target: T3, human S1P receptor EDG-1 (S1P1) (Homo sapiens, UniProt P21453); experiment: S1P receptor profiling, GTP[γ-35S] binding SPA, S1P1; format: biochemical; conditions: for S1P1 mode of action: Agon = agonist; for EC50: GTP[γ-35S] binding to membranes of transfected CHO or RH7777 cells
T3 construct: expressed in transfected cells
T3 sequence (P21453 whole entry): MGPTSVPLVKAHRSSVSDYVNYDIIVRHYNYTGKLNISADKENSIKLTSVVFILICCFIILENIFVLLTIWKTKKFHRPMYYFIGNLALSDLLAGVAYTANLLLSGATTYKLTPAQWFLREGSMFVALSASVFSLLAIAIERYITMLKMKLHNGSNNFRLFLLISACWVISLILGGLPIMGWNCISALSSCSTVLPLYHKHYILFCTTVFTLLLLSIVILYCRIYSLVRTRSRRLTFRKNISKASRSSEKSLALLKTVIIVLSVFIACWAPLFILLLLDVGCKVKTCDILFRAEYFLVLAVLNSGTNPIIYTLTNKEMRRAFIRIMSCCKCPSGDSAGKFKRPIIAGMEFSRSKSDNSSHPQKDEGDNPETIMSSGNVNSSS
Procedure: as §1, §2

[5] = molecular target: T4, human S1P receptor EDG-6 (S1P4) (Homo sapiens, UniProt O95977); experiment: S1P receptor profiling, GTP[γ-35S] binding SPA, S1P4; format: biochemical; conditions: for S1P4 mode of action: Agon = agonist; for EC50: GTP[γ-35S] binding to membranes of transfected CHO or RH7777 cells
T4 construct: expressed in transfected cells
T4 sequence (O95977 1-384): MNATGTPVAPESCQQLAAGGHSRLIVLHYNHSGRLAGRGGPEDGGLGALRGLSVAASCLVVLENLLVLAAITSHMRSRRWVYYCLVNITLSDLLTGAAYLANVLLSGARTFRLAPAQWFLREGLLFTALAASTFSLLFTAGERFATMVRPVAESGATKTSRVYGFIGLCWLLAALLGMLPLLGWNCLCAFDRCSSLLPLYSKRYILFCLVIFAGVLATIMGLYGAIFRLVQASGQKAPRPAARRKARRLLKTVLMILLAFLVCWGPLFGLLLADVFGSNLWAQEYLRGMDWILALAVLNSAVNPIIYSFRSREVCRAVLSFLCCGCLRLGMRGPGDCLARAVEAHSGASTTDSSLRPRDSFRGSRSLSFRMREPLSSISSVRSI
Procedure: as §1, §2

Structure (SMILES) | dose giving depletion of peripheral blood lymphocytes by more than 50% ([1]; after 6 h) | dose giving depletion of peripheral blood lymphocytes by more than 50% ([1]; after 24 h) | dose giving depletion of peripheral blood lymphocytes by more than 50% ([1]; after 48 h) [mg/kg after 48 h] | S1P5 mode of action [2] | EC50 [2] [nM] | S1P3 mode of action [3] | EC50 [3] [nM] | S1P1 mode of action [4] | EC50 [4] [nM] | S1P4 mode of action [5] | EC50 [5] [nM] | melting point [°C]
CCCCCOc1ccc2cc(CC[C@@](C)(N)CO)ccc2c1 [Example 1, (R)-2-amino-2-methyl-4-(6-pentyloxynaphthalen-2-yl)butan-1-ol] | 0.02 mg/kg p.o. after 6 h, | 0.3 mg/kg p.o. after 24 h, | >1 |  |  |  |  |  |  |  |  | 
CCCCCOc1ccc2cc(CC[C@@](C)(N)COP(=O)(O)O)ccc2c1 [Example 12, Phosphoric acid mono-[(R)-2-amino-2-methyl-4-(6-pentyloxynaphthalen-2-yl)but-1-yl]ester] |  |  |  | Agon | 0.1 | Agon | 8.4 | Agon | 0.3 | Agon | 0.4 | 266 to 267
C[C@@](N)(CCc1ccc2cc(OCCCC(F)(F)C(F)(F)F)ccc2c1)COP(=O)(O)O [Example 13] |  |  |  | Agon | 0.4 | Agon | 5.7 | Agon | 0.06 | Agon | 1.2 | 
CCCOc1ccc2cc(CC[C@@](C)(N)COP(=O)(O)O)ccc2c1 [Example 14] |  |  |  | Agon | 0.8 | inverse | 47 | Agon | 2.8 | Agon | 1 | 
C[C@](N)(CO)CCc1ccc2oc(-c3ccc4c(c3)OCO4)nc2c1 [Example 25, (R)-2-Amino-4-(2-benzo[1,3]dioxol-5-yl-benzoxazol-5-yl)-2-methyl-butan-1-ol] | 0.06 mg/kg p.o. after 6 h |  | 0.3 |  |  |  |  |  |  |  |  | 
CCOc1cccc(-c2nc3cc(CC[C@@](C)(N)CO)ccc3o2)c1 [Example 26, (R)-2-Amino-4-[2-(3-ethoxy-phenyl)-benzoxazol-5-yl]-2-methyl-butan-1-ol] | 0.03 mg/kg p.o. after 6 h |  | 0.2 |  |  |  |  |  |  |  |  | 
C[C@](N)(CO)CCc1ccc2oc(-c3ccccc3)cc2c1 [Example 37, (R)-2-Amino-2-methyl-4-(2-phenyl-benzofuran-5-yl)-butan-1-ol] | 0.40 mg/kg p.o. after 6 h |  |  |  |  |  |  |  |  |  |  | 
CCCCCc1nc2cc(CC[C@@](C)(N)COP(=O)(O)O)ccc2o1 [Example 42, Phosphoric acid mono-[(R)-2-amino-2-methyl-4-(2-pentyl-benzoxazol-5-yl)-butyl]ester] |  |  |  | Agon | 5 | Agon | > 1000 | Agon | 17 | Agon | 9 | 
C[C@@](N)(CCc1ccc2oc(-c3ccccc3)cc2c1)COP(=O)(O)O [Example 49, Phosphoric acid mono-[(R)-2-amino-2-methyl-4-(2-phenyl-benzofuran-5-yl)-butyl]ester] |  |  |  | Agon | 0.4 | Agon | 1180 | Agon | 1.6 | Agon | 0.7 | 
